# Source: patent US20180110762A1, “Compositions Methods for Treating Chronic Kidney Disease” (Merck Sharp & Dohme Corp, priority 2015, published 2018)
# Marks after values point to notes of the source that are not given here.
# What was measured:
# Assay type in all cases: in vivo
# [1] = tested on: male obese ZSF1 rats (diabetic nephropathy model); test: ZSF1 rat study: kidney collagen I and III immunostaining; details: obese ZSF1 rats, 10 mpk in-feed, week 28
# Experimental: (§1) The effects of Compound A (“A”) on renal function, plasma triglycerides, plasma cholesterol, kidney collagen I, kidney collagen III, renal histology, glomerular filtration rate, fibrosis score, and mRNA gene expression (profibrotic genes and integrin β3) were evaluated in male obese ZSF1 rats (a hybrid F1 of Zucker diabetic fatty rat and spontaneously hypertensive heart failure rat; a diabetic nephropathy model) when administered as in-feed for 28 weeks. Sixty obese male ZSF1 rats were randomized to five groups: Obese control (n=12), Compound A 60 mpk (n=12), Compound A 200 mpk (n=12), Compound A 400 mpk (n=12), Enalapril 10 mpk (n=12); Eight lean male ZSF1 rats were used for normal control. Renal functional changes were monitored by blood and urine analysis following in-feed dosing for 28 weeks. Compound exposure was also monitored during the study.
# Following deparaffinization and rehydration, each kidney tissue section was processed to identify collagen I and III deposition. The primary antibodies used were rabbit anti-type I collagen polyclonal antibody (Abcam, Cambridge, Mass.) diluted at 2 ug/ml, and rabbit anti-type III collagen polyclonal antibody (Lifespan, Seattle, Wash.) at 3 ug/ml. The signal was developed by using Super PicTure HRP Polymer Rabbit Primary kit (Invitrogen) and the slides were counterstained with hematoxylin. The Aperio ScanScope XT Slide Scanner (Aperio Technologies, Vista, Calif.) system was used to capture whole slide digital images with a 20× objective. Digital images were managed using Aperio Spectrum. The positive stains were identified and quantified using a macro created from a color deconvolution algorithm (Aperio Technologies, Vista, Calif.).
# [2] = tested on: male obese ZSF1 rats (diabetic nephropathy model); test: ZSF1 rat study: kidney mRNA expression of profibrotic genes and integrin beta3; details: obese ZSF1 rats, 10 mpk in-feed, week 28
# Experimental: as §1
# [3] = tested on: male obese ZSF1 rats (diabetic nephropathy model); test: ZSF1 rat 28-week in-feed study: urinary protein (UPCR, 24 h excretion); details: obese ZSF1 rats, 10 mpk in-feed
# Experimental: as §1
# [4] = ZSF1 rat 28-week in-feed study: body weight, food and water intake; details: obese ZSF1 rats, 10 mpk in-feed
# Experimental: as §1
# [5] = tested on: male obese ZSF1 rats (diabetic nephropathy model); test: ZSF1 rat study: GFR measurement by FITC-sinistrin clearance; details: obese ZSF1 rats, 10 mpk in-feed, week 28
# Experimental: as §1
# For the measurement of GFR, a miniaturized device (NIC-Kidney, Mannheim Pharma & Diagnostics, Mannheim, Germany) was used. In brief, the device (batteries, diodes, and microprocessor) containing an optical component was affixed on a depilated region of the back using a double-sided sticky patch (Lohmann GmbH KG, 56567, Neuwied, Germany) under isofluorane anesthesia (3% isoflurane mixed with oxygen). After a resting baseline period of 1-1.5 minutes, a bolus of FITC-sinistrin (5 mg/100 g body weight, dissolved in 0.5 mL sterile isotonic saline) was injected through the tail vein. The rat was then placed in a clean cage for recovery from anesthesia to responsible ambulation. […] The excretion kinetics of FITC-sinistrin was determined using a sampling rate of 60 measurements per minute with an excitation time of 10 milliseconds per measurement for 120 minutes after the injection. One compartment model was used for FITC-sinistrin clearance. After completion of GFR measurement, the device was gently removed from the skin and the rat returned to its home cage.
# [6] = tested on: male obese ZSF1 rats (diabetic nephropathy model); test: ZSF1 rat study: plasma triglyceride and cholesterol; details: obese ZSF1 rats, 10 mpk in-feed; for plasma cholesterol levels: in mg/dL (unit assumed)
# Experimental: as §1
# [7] = tested on: male obese ZSF1 rats (diabetic nephropathy model); test: ZSF1 rat study: renal fibrosis score (histology); details: obese ZSF1 rats, 10 mpk in-feed, week 28
# Experimental: as §1
# Upon completion of the study, animals were euthanized and blood and organs (kidney, heart, aorta, eyes, and lumber vertebrae (LV1-LV5) and left femur) were collected for histology assessment (including EM for the kidneys) or DEXA scan (lumber vertebrae and left femur). Kidney tissues were fixed in 10% formalin and then paraffin embedded. Tissue sections were stained with hematoxylin and eosin (H&E), periodic acid-Schiff (PAS), and Masson's trichrome and evaluated under light microscope. The severity of histopathologic changes in renal tubules, interstitium, vasculature, and glomeruli were graded on a 1 to 5 scale corresponding to minimal, mild, moderate, marked, and severe as described previously. Sections from both kidneys were examined. Collagen deposition in the kidney was graded on a 1 to 5 scale corresponding to minimal, mild, moderate, marked, and severe, based on the blue stained area size and intensity.
structure (smiles),measurement,setting,value
"CCOC(=O)[C@H](CCc1ccccc1)N[C@@H](C)C(=O)N1CCC[C@H]1C(=O)O [Enalapril, reference compound]",kidney collagen I protein levels,[1],34.83 ± 0.71 % of area
same,kidney collagen III protein levels,[1],19.19 ± 0.90 % of area
same,Collagen I (a1) expression in the kidney,[2],0.54 ± 0.02
same,Collagen III (a1) expression in the kidney,[2],0.39 ± 0.02
same,Integrin beta3 expression in the kidney,[2],0.68 ± 0.03
same,PAI-1 expression in the kidney,[2],0.52 ± 0.04
same,24 h Urinary Protein Excretion,[3]; week 1,73.9 ± 3.8 mg/24 h
same,UPCR (urinary protein/creatinine ratio),[3]; week 1,6.3 ± 0.3 mg/mg
same,24 h Urinary Protein Excretion,[3]; week 2,91.2 ± 4.9 mg/24 h
same,UPCR (urinary protein/creatinine ratio),[3]; week 2,7.4 ± 0.4 mg/mg
same,24 h Urinary Protein Excretion,[3]; week 4,96.1 ± 5.1 mg/24 h
same,UPCR (urinary protein/creatinine ratio),[3]; week 4,8.0 ± 0.4 mg/mg
same,24 h Urinary Protein Excretion,[3]; week 6,92.2 ± 6.0 mg/24 h
same,UPCR (urinary protein/creatinine ratio),[3]; week 6,7.3 ± 0.4 mg/mg
same,24 h Urinary Protein Excretion,[3]; week 8,135.3 ± 10.2 mg/24 h
same,UPCR (urinary protein/creatinine ratio),[3]; week 8,10.2 ± 0.6 mg/mg
same,24 h Urinary Protein Excretion,[3]; week 12,234.8 ± 16.4 mg/24 h
same,UPCR (urinary protein/creatinine ratio),[3]; week 12,17.1 ± 0.9 mg/mg
same,24 h Urinary Protein Excretion,[3]; week 16,252.2 ± 21.1 mg/24 h
same,UPCR (urinary protein/creatinine ratio),[3]; week 16,14.0 ± 0.7 mg/mg
same,24 h Urinary Protein Excretion,[3]; week 21,274.5 ± 16.8 mg/24 h
same,UPCR (urinary protein/creatinine ratio),[3]; week 21,15.6 ± 0.6 mg/mg
same,24 h Urinary Protein Excretion,[3]; week 24,289.4 ± 16.5 mg/24 h
same,UPCR (urinary protein/creatinine ratio),[3]; week 24,16.6 ± 0.8 mg/mg
same,24 h Urinary Protein Excretion,[3]; week 28,309.6 ± 15.8 mg/24 h
same,UPCR (urinary protein/creatinine ratio),[3]; week 28,19.5 ± 0.8 mg/mg
same,24 h Urinary Protein Excretion,[3]; week −2,132.9 ± 9.9 mg/24 h
same,UPCR (urinary protein/creatinine ratio),[3]; week −2,10.8 ± 0.8 mg/mg
same,Body Weight,[4]; week 1,570.2 ± 10.3 grams
same,Food Intake,[4]; week 1,30.1 ± 1.3 grams/24 h
same,Water Intake,[4]; week 1,50.2 ± 6.2 mls/24 h
same,Body Weight,[4]; week 2,578.3 ± 11.2 grams
same,Food Intake,[4]; week 2,31.7 ± 1.4 grams/24 h
same,Water Intake,[4]; week 2,55.0 ± 5.2 mls/24 h
same,Body Weight,[4]; week 4,585.7 ± 11.1 grams
same,Food Intake,[4]; week 4,33.1 ± 1.0 grams/24 h
same,Water Intake,[4]; week 4,56.6 ± 6.0 mls/24 h
same,Body Weight,[4]; week 6,606.1 ± 11.6 grams
same,Food Intake,[4]; week 6,33.1 ± 1.0 grams/24 h
same,Water Intake,[4]; week 6,61.7 ± 5.5 mls/24 h
same,Body Weight,[4]; week 8,623.8 ± 13.3 grams
same,Food Intake,[4]; week 8,35.1 ± 1.5 grams/24 h
same,Water Intake,[4]; week 8,85.4 ± 7.4 mls/24 h
same,Body Weight,[4]; week 10,637.2 ± 14.1 grams
same,Body Weight,[4]; week 12,655.6 ± 14.2 grams
same,Food Intake,[4]; week 12,36.6 ± 1.5 grams/24 h
same,Water Intake,[4]; week 12,91.7 ± 7.5 mls/24 h
same,Body Weight,[4]; week 14,658.1 ± 16.2 grams
same,Body Weight,[4]; week 16,671.1 ± 16.8 grams
same,Food Intake,[4]; week 16,33.3 ± 1.6 grams/24 h
same,Water Intake,[4]; week 16,83.3 ± 8.3 mls/24 h
same,Body Weight,[4]; week 18,682.1 ± 16.4 grams
same,Body Weight,[4]; week 21,709.5 ± 18.0 grams
same,Food Intake,[4]; week 21,37.7 ± 1.6 grams/24 h
same,Water Intake,[4]; week 21,75.8 ± 5.9 mls/24 h
same,Body Weight,[4]; week 24,733.7 ± 20.2 grams
same,Food Intake,[4]; week 24,35.5 ± 1.3 grams/24 h
same,Water Intake,[4]; week 24,89.7 ± 7.9 mls/24 h
same,Body Weight,[4]; week 28,753.7 ± 21.8 grams
same,Food Intake,[4]; week 28,33.6 ± 1.5 grams/24 h
same,Water Intake,[4]; week 28,68.0 ± 6.5 mls/24 h
same,Body Weight,[4]; week −2,522.2 ± 10.2 grams
same,Food Intake,[4]; week −2,37.5 ± 1.5 grams/24 h
same,Water Intake,[4]; week −2,68.1 ± 4.9 mls/24 h
same,"FITC-sinistrin clearance, % change of improvement compared to Obese Vehicle group",[5],59.6%****
same,Glomerular Filtration Rate,[5],971.9 ± 53.3 uLs/Min/100 gm BW
same,Plasma Triglyceride,[6]; week 2,2979.8 ± 161.7 mg/dL
same,plasma cholesterol levels,[6]; week 2,220.9 ± 5.9
same,Plasma Triglyceride,[6]; week 4,3212.4 ± 137.6 mg/dL
same,plasma cholesterol levels,[6]; week 4,251.1 ± 7.4
same,Plasma Triglyceride,[6]; week 6,2866.6 ± 145.5 mg/dL
same,plasma cholesterol levels,[6]; week 6,232.5 ± 6.0
same,Plasma Triglyceride,[6]; week 8,3770.3 ± 280.6 mg/dL
same,plasma cholesterol levels,[6]; week 8,294.3 ± 6.7
same,Plasma Triglyceride,[6]; week 12,3298.3 ± 221.4 mg/dL
same,plasma cholesterol levels,[6]; week 12,290.2 ± 7.6
same,Plasma Triglyceride,[6]; week 16,3554.6 ± 186.3 mg/dL
same,plasma cholesterol levels,[6]; week 16,319.3 ± 9.9
same,Plasma Triglyceride,[6]; week 21,3224.3 ± 240.5 mg/dL
same,plasma cholesterol levels,[6]; week 21,321.1 ± 11.3
same,Plasma Triglyceride,[6]; week 24,3180.2 ± 204.5 mg/dL
same,plasma cholesterol levels,[6]; week 24,354.3 ± 12.5
same,Plasma Triglyceride,[6]; week 28,2855.1 ± 291.3 mg/dL
same,plasma cholesterol levels,[6]; week 28,368.8 ± 13.2
same,Plasma Triglyceride,[6]; week −2,2023.9 ± 82.1 mg/dL
same,plasma cholesterol levels,[6]; week −2,187.1 ± 5.4
same,renal fibrosis score (expressed as 0-5),[7],2.0 ± 0.1
